Where “and” joins values, the source holds several entries; their conditions need not be identical. Identical values can stand only once.
Assays:
[1] = target: T1, Genome polyprotein (dengue virus type 2, UniProt P29990); assay type: functional, Thailand/16681/1984
[2] = target: T1, Genome polyprotein; assay type: functional, Thailand/16681/1984; remark: listed apart in the source

T1 sequence (P29990 1346-1475 limits assumed): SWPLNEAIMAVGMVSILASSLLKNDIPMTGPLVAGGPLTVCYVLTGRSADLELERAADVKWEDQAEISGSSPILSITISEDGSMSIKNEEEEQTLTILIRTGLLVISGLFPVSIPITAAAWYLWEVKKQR
T1 sequence (P29990 1476-2093 limits assumed): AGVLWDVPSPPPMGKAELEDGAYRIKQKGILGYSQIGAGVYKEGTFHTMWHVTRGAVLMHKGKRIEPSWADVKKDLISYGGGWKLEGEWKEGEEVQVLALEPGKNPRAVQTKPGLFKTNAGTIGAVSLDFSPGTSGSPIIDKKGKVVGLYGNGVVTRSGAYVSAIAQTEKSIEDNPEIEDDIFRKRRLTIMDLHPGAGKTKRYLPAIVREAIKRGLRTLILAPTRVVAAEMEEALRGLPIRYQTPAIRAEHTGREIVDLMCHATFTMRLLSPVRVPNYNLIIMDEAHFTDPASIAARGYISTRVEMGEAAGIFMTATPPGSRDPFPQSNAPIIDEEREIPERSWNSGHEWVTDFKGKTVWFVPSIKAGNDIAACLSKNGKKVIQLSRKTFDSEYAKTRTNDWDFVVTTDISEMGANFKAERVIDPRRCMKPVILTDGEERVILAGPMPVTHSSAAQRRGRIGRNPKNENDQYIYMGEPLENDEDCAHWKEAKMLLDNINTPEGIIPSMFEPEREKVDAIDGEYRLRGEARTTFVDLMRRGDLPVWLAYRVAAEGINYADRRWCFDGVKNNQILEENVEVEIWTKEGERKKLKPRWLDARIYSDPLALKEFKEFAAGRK

| SMILES | IC50 [1] | IC50 [2] |
| --- | --- | --- |
| CCn1c(=O)c(N2CC[C@H](CO)C2)nc2ccc(C(N)=O)cc21 | 81.7 µM | > 100 µM |
| O=C(Nc1cc(Cl)cc(C(=O)NCCc2nnn[nH]2)c1)OCc1ccccc1 | > 99.5 µM | > 100 µM |
| Cc1c(C(=O)Nc2cccc(-n3nn[nH]c3=O)c2)cc(C2CC2)n1C | > 99.5 µM | > 100 µM |
| N[C@H]1Cc2ccc(NC(=O)c3cc(Cl)cc(NC(=O)OCc4ccccc4)c3)cc2C1 | 33.3 µM | 64.2 µM |
| N#Cc1ccc(CN)cc1NC(=O)c1cc(Cl)cc(NC(=O)OCc2ccccc2)c1 | > 99.5 µM | > 100 µM |
| Cc1nc(-c2ccc(Cl)cc2)sc1C(=O)Nc1cccc(CN)c1 | > 99.5 µM | > 100 µM |
| CC[C@H](Cc1nnn[nH]1)c1ccc(NC(=O)c2cc(Cl)cc(SC)c2)cc1 | 67.2 µM | 40.6 µM |
| Cc1c(C(=O)Nc2cccc(CN)c2)cc(C2CC2)n1C | > 99.5 µM | > 100 µM |
| O=C(Nc1cccc(-c2nnn[nH]2)c1)c1cc(Cl)cc2[nH]ncc12 | > 99.5 µM | > 100 µM |
| CCn1c(=O)c(N2CC[C@H](CO)C2)nc2ccc(C(=O)NS(C)(=O)=O)cc21 | > 99.5 µM | > 100 µM |
| Cc1c(C(=O)Nc2cccc([C@H]3CCNC3)c2)cc(C2CC2)n1C | > 99.5 µM | > 100 µM |
| N#Cc1cc(Cl)cc(S(=O)(=O)Nc2cccc(-c3nnn[nH]3)c2)c1 | > 99.5 µM | > 100 µM |
| Cc1c(C(=O)Nc2cccc(CCN)c2)cc(C2CC2)n1C | > 99.5 µM | > 100 µM |
| O=C(Nc1cc(Cl)cc(C(=O)Nc2cccc(-c3cn[nH]n3)c2)c1)OCc1ccccc1 | 55.7 µM | > 100 µM |
| CCc1cc(C(=O)Nc2cccc(CN)c2)sc1C | > 99.5 µM | > 100 µM |
| Cc1ccc(NC(=O)c2cc(C3CC3)n(C)c2C)cc1CN | > 99.5 µM | > 100 µM |
| Cc1onc(C(=O)Nc2cccc(CN)c2)c1COc1cccc(F)c1 | > 99.5 µM | > 100 µM |
| CC[C@H](Cc1nnn[nH]1)c1ccc(NC(=O)c2cc(Cl)cc3[nH]ncc23)cc1 | > 99.5 µM | > 100 µM |
| Cc1nn(CCO)c(C(F)F)c1C(=O)Nc1cccc(CN)c1 | > 99.5 µM | > 100 µM |
| CCc1nc(C(=O)Nc2cccc(CN)c2)nn1-c1c(Cl)cccc1Cl | > 99.5 µM | > 100 µM |
| CC(C)c1nc2c(C(=O)Nc3cccc(-c4nnn[nH]4)c3)cccc2[nH]1 | > 99.5 µM | > 100 µM |

| SMILES | IC50 [1] | IC50 [2] |
| --- | --- | --- |
| N#Cc1cc(Cl)cc(C(=O)Nc2cccc(-n3nn[nH]c3=O)c2)c1 | > 99.5 µM | > 100 µM |
| Cn1nnnc1-c1cccc(NC(=O)c2cc(Cl)cc(NC(=O)OCc3ccccc3)c2)c1 | > 99.5 µM | > 100 µM |
| O=C1Cc2cc(NC(=O)c3cc(Cl)cc(NC(=O)OCc4ccccc4)c3)ccc2N1 | > 99.5 µM | > 100 µM |
| Nc1nc2ccc(NC(=O)c3cc(Cl)cc(NC(=O)OCc4ccccc4)c3)cc2[nH]1 | > 99.5 µM | > 100 µM |
| CSc1cc(Cl)cc(C(=O)Nc2cccc(-n3nn[nH]c3=O)c2)c1 | > 99.5 µM | 78.2 µM |
| CCNC(=O)Nc1cc(Cl)cc(C(=O)Nc2ccc([C@H](CC)Cc3nnn[nH]3)cc2)c1 | > 99.5 µM | > 100 µM |
| CC(C)c1occ(C(F)(F)F)c1C(=O)Nc1cccc(CN)c1 | > 99.5 µM | > 100 µM |
| CNC(=O)[C@H](Nc1cccc(N)n1)c1cc(Cl)cc(CNC(=O)OC(C)(C)C)c1 | > 99.5 µM | > 100 µM |
| O=C(Nc1cc(Cl)cc(C(=O)Nc2cc(Br)cc(-c3nnn[nH]3)c2)c1)OCc1ccccc1 | 5.85 µM | 4.76 µM and 6.21 µM |
| Nc1cccc(NC(=O)c2cc(Cl)cc(NC(=O)OCc3ccccc3)c2)n1 | > 99.5 µM | > 100 µM |
| COC(=O)c1cc(NC(=O)c2cc(Cl)cc(NC(=O)OCc3ccccc3)c2)cc(-c2nnn[nH]2)c1 | 6.17 µM | 5.42 µM and 6.24 µM |
| N#Cc1cc(CN)cc(NC(=O)c2cc(Cl)cc(NC(=O)OCc3ccccc3)c2)c1 | > 99.5 µM | > 100 µM |
| O=C(Nc1cc(Cl)cc(C(=O)NCCCc2nnn[nH]2)c1)OCc1ccccc1 | > 99.5 µM | > 100 µM |
| C=CC[C@H](Nc1cccc(CN)n1)c1cc(Cl)cc(NC(=O)OCc2ccccc2)c1 | > 99.5 µM | > 100 µM |
| O=C(Nc1cc(Cl)cc(C(=O)Nc2ccc(-n3nn[nH]c3=O)cc2)c1)OCc1ccccc1 | 13.3 µM and 14.1 µM | 7.45 µM and 7.74 µM |
| CC(C)[C@H](NC(=O)c1cc(Cl)cc(NC(=O)OCc2ccccc2)c1)c1nn[nH]n1 | > 99.5 µM | 61.3 µM and 41.1 µM and 39.5 µM and 56.3 µM and 58.4 µM |
| CC[C@H](Cc1nnn[nH]1)c1ccc(NC(=O)c2cc(Cl)cc(C#N)c2)cc1 | > 99.5 µM | > 100 µM |
| Cc1cc(CN)cc(NC(=O)c2cc(C3CC3)n(C)c2C)c1 | > 99.5 µM | > 100 µM |
| O=C(Nc1cc(Cl)cc(C(=O)Nc2ccc([C@H]3CNCCO3)cc2)c1)OCc1ccccc1 | > 99.5 µM | > 100 µM |
| Cn1nc(C(=O)Nc2cccc(CN)c2)cc1C1CC1 | > 99.5 µM | > 100 µM |
| Cc1c(C(=O)Nc2cccc([C@@H](C)N)c2)cc(C2CC2)n1C | > 99.5 µM | > 100 µM |

| SMILES | IC50 [1] | IC50 [2] |
| --- | --- | --- |
| NC[C@H]1C[C@H]1NC(=O)c1cc(Cl)cc(NC(=O)OCc2ccccc2)c1 | > 99.5 µM | > 100 µM |
| CCc1onc(C2CCOCC2)c1C(=O)Nc1cccc(CN)c1 | > 99.5 µM | > 100 µM |
| Cn1cc(C(=O)Nc2cccc(CN)c2)c(-c2cnccn2)n1 | > 99.5 µM | > 100 µM |
| N#Cc1cc(Cl)cc(C(=O)Nc2cccc(-c3nnn[nH]3)c2)c1 | > 99.5 µM | > 100 µM |
| N[C@H]1CCN(c2ccc(NC(=O)c3cc(Cl)cc(NC(=O)OCc4ccccc4)c3)cc2)C1 | 35.4 µM | > 100 µM |
| CNC(=O)[C@H](Nc1cccc(CN)c1)c1cc(Cl)cc(NC(=O)OCc2ccccc2)c1 | > 99.5 µM | > 100 µM |
| O=C(Nc1cccc(-n2nn[nH]c2=O)c1)c1cc(Cl)cc2c1CCC2 | > 99.5 µM | > 100 µM |
| O=C(Nc1cc(Cl)cc(C(=O)Nc2ccc([C@H]3CCCNC3)cc2)c1)OCc1ccccc1 | 68.4 µM | > 100 µM |
| NC[C@H]1C[C@@H]1NC(=O)c1cc(Cl)cc(NC(=O)OCc2ccccc2)c1 | > 99.5 µM | > 100 µM |
| NC1CCN(c2ccc(NC(=O)c3cc(Cl)cc(NC(=O)OCc4ccccc4)c3)cc2)CC1 | 39.7 µM | > 100 µM |
| O=C(Nc1cccc(-c2nnn[nH]2)c1)c1cc(Cl)cc(C2CC2)c1 | 82.9 µM | 39.7 µM and 43.5 µM |
| CCNC(=O)Nc1cc(Cl)cc(C(=O)Nc2cccc(-c3nn[nH]n3)c2)c1 | > 99.5 µM | > 100 µM |
| Cc1c(C(=O)Nc2cc(CCCN)ccn2)cc(C2CC2)n1C | 74.6 µM and 35.9 µM | > 100 µM |
| NCc1cccc(NC(=O)[C@H]2CCCN(C(=O)CC3CC3)C2)c1 | > 99.5 µM | > 100 µM |
| NCc1cccc(NC(=O)c2nc(C3CC3)n(-c3ccccc3Cl)n2)c1 | > 99.5 µM | > 100 µM |
| O=C(Nc1cc(Cl)cc(C(=O)Nc2ccc([C@H]3CCNC3)cc2)c1)OCc1ccccc1 | 19.5 µM and 24.6 µM | 39.4 µM |
| O=C(Nc1cc(Cl)cc(C(=O)Nc2ccc(CC3CCNCC3)cc2)c1)OCc1ccccc1 | 14 µM and 17.3 µM | 33.3 µM |
| Cc1cc(C(=O)Nc2cccc(CN)c2)c(NC(=O)[C@H]2CCCO2)s1 | > 99.5 µM | > 100 µM |
| NCc1cccc(NC(=O)c2cc(Br)cc(-n3cnnn3)c2)c1 | > 99.5 µM | > 100 µM |
| O=C(Nc1cc(Cl)cc(C(=O)N[C@H](c2nn[nH]n2)C2CNC2)c1)OCc1ccccc1 | > 99.5 µM | > 100 µM |
| COc1cc(C(=O)Nc2cccc(CN)c2)cc2cn(C)nc12 | > 99.5 µM | > 100 µM |

| SMILES | IC50 [1] | IC50 [2] |
| --- | --- | --- |
| O=C(Nc1cc(Cl)cc(C(=O)Nc2ccc3c(c2)CCNC3)c1)OCc1ccccc1 | 50 µM and 60.1 µM | > 100 µM |
| Cc1oc(C(=O)Nc2cccc(CN)c2)cc1COc1ccccc1 | > 99.5 µM | > 100 µM |
| CN(C)[C@H](C(=O)Nc1cccc(CN)c1)c1cc(Cl)cc(Cl)c1 | > 99.5 µM | > 100 µM |
| Cn1nc(C(=O)Nc2cccc(CN)c2)c2c1CCS(=O)(=O)C2 | > 99.5 µM | > 100 µM |
| O=S(=O)(Nc1cccc(-c2nnn[nH]2)c1)c1cc(F)cc(Cl)c1 | > 99.5 µM | > 100 µM |
| O=C(Nc1cccc(-n2nn[nH]c2=O)c1)c1cc(Cl)cc(N2CCCC2=O)c1 | > 99.5 µM | > 100 µM |
| CCOC(=O)c1[nH]c(C)c(C(=O)Nc2cccc(CN)c2)c1CC | > 99.5 µM | > 100 µM |
| CC[C@H](Cc1nnn[nH]1)c1ccc(NC(=O)c2cc(Cl)cc3c2CCC3)cc1 | 83.6 µM | 58.8 µM |
| Cc1c(C(=O)Nc2ccc3c(c2)CNCCO3)cc(C2CC2)n1C | > 99.5 µM | > 100 µM |
| CC[C@H](Cc1nnn[nH]1)c1ccc(NC(=O)c2cc(Cl)cc(C3CC3)c2)cc1 | 55.2 µM | 28.7 µM and 35.1 µM |
| Cc1c(C(=O)Nc2cccc(C3CCNCC3)c2)cc(C2CC2)n1C | > 99.5 µM | > 100 µM |
| O=C(N[C@H]1[C@H]2CCCCC[C@H]2[C@H]1C(=O)Nc1cccc(-n2nn[nH]c2=O)c1)OCc1ccccc1 | 27.1 µM | 37.9 µM and 54.6 µM |
| O=C(Nc1cc(Cl)cc(C(=O)Nc2ccc3c(c2)CNC3=O)c1)OCc1ccccc1 | > 99.5 µM | > 100 µM |
| NCc1ccc2c(c1)[C@H](N1CCCC1=O)C[C@H](c1cc(Cl)cc(NC(=O)OCc3ccccc3)c1)N2 | > 99.5 µM | 75.5 µM |
| Cc1c(C(=O)Nc2n[nH]c3c2CNC3)cc(C2CC2)n1C | > 99.5 µM | > 100 µM |
| Cc1c(C(=O)Nc2ccc(CCN)cc2)cc(C2CC2)n1C | > 99.5 µM | > 100 µM |
| CC[C@H](Cc1nnn[nH]1)c1ccc(NC(=O)c2cc(Cl)cc(Cl)c2OC)cc1 | > 99.5 µM | > 100 µM |
| O=C(O)Cc1cccc(NC(=O)c2cc(Cl)cc(NC(=O)OCc3ccccc3)c2)c1 | 74.6 µM | 40 µM |
| CCNC(=O)Nc1cc(Cl)cc(C(=O)O)c1 | > 99.5 µM | > 100 µM |
| NCc1cccc(NC(=O)c2cc(C(F)(F)F)cnc2N2CCOCC2)c1 | > 99.5 µM | > 100 µM |
